From US20180296532A1, “RNA-Focused Small Molecules for Inhibiting RNA Toxicity in Myotonic Dystrophy” (The Scripps Research Institute, priority 2015, published 2018)

Tests used:
[1] = system: C2C12 cell line expressing firefly luciferase mRNA with r(CUG)800 in the 3′ UTR; experiment: Luciferase reporter assay for DM1 translational defects in C2C12 cells; type: cell-based
Excerpt: Exemplary Formula (I) compound 2GN8 was studied for improving translational defects associated with DM1 (due to poor nucleocytoplasmic transport of r(CUG)^exp containing transcripts).^(30, 52, 53) In particular, a cellular model system was employed in which the C2C12 cell line stably expresses r(CUG)800 embedded in the 3′ UTR of firefly luciferase.^(54) Similar to DMPK mRNA in DM1-affected cells, the expanded repeat impairs nucleocytoplasmic transport of luciferase mRNA and thus decreases luciferase expression. Compounds that bind r(CUG)^exp and disrupt the r(CUG)^exp-MBNL1 complex may stimulate cytoplasmic transport of the luciferase mRNA and thus translation of luciferase (FIG. 9A).
C2C12 cell lines expressing 800 or 0 CTG repeats in the 3′ UTR of luciferase were grown as monolayers in 96-well plates in growth medium (1×DMEM, 10% FBS, 1× glutagro, (Corning) and 1× antibiotic/antimycotic (Corning))(66). Once the cells were 80% confluent, 2GN8 (300, 200 and 100 μM) was added in 100 μL of growth medium. Cells were treated for 48 h and then the cell count was normalized using WST-1 reagent (Roche). Then cells were washed with 1×DPBS and lysed by treating with 50 μL of PPBT lysis buffer at room temperature for 10 minutes. Then 50 μL of luciferase substrate was added and luminescence was measured.

[2] = system: DM1 patient derived fibroblasts containing 500 CUG repeats; experiment: MBNL1 pre-mRNA splicing defects in DM1 patient derived fibroblasts; type: cell-based; details: 300 and 200 μM, 48 h
Method: Bioactivity of 2GN8 was further assessed using DM1 patient derived fibroblasts containing 500 CUG repeats. First 2GN8 was evaluated for improvement of DM1 MBNL1 splicing defects. In DM1, mis-splicing of MBNL1 exon 5 results in an increase in inclusion to ˜30% compared to ˜15% inclusion in healthy tissue.
Bioactivity of 2GN8 was assessed by using DM1 patient derived fibroblasts containing 500 CTG repeats (GM03987) and healthy fibroblasts (GM07492). Cells were grown as monolayers in 6 well plates in growth medium (1×EMEM (Lonza), 10% FBS, 1× glutagro (Corning), 1×MEM non-essential amino acids (Corning) and 1× antibiotic/antimycotic (Corning)). Once cells were ˜80% confluent, they were treated with growth medium containing 2GN8 (300, 200 and 100 μM). After 48 h the cells were lysed and the total RNA was harvested using a Zymo Quick RNA miniprep kit. An on-column DNA digestion was completed per the manufacturer's recommended protocol. Approximately 100 ng of total RNA was reverse transcribed at 50° C. using 100 units of SuperScript III reverse transcriptase (Life Technologies). Then 20% of the RT reaction was subjected to PCR using GoTaq DNA polymerase. RT-PCR products were observed after 25 cycles of 95° C. for 30 s, 58° C. for 30 s, 72° C. for 1 min and a final extension at 72° C. for 1 min. The products were separated on an 2% agarose gel ran at 100 V for 1 h in 1×TAE buffer. […]

With N=C(N)Nc1ccc2nc(-c3ccc(-c4nc5ccc(NC(=N)N)cc5[nH]4)cc3)[nH]c2c1 [Compound 2GN8] the “luciferase activity in cells without r(CUG)800” value ([1]; C2C12 cells expressing firefly luciferase mRNA without r(CUG)800) was “does not affect luciferase activity”, the “luciferase activity (improvement of translational defect)” value ([1]; C2C12 cells with r(CUG)800, 300 and 200 μM, 48 h) was “significant increase” and the “improvement of MBNL1 pre-mRNA splicing defects (exon 5 inclusion)” value [2] was “substantially improves”.
